What is called melting point is the temperature of the solid-liquid transition.

Molecule `O=C1N=CN(CC2CCCCC2)C12CCN(Cc1ccccc1)CC2` registered a melting point of 117 to 118 °C. With `COc1cc(C=CC=C2SC(=O)NC2=O)ccc1OC(C)C` the figure was 230 to 231 °C. With `CC12CCC3C(CCC4CC(O)CCC43C)C1CCC2S` (configuration not stated) the figure was 169 to 170 °C; with `Cc1nc2ccccc2n2c(-c3cc(OCC(F)c4ccccn4)ccc3Cl)nnc12` (configuration not stated), 155 to 157 °C. With `Cc1cc2c(s1)c(=O)c(C(=O)O)cn2C` the figure was 305 to 315 °C; with `C=C[C@H]1C(=O)N(C)[C@H](C(C)(C)C)N1C(=O)c1ccccc1`, 169 to 171 °C; with `O=C(O)CN1C(=O)C(Cl)=C(Cl)C1=O`, 191 to 192 °C. For the molecule `Cc1cc(Oc2c(Cl)cc(C(F)(F)F)cc2[N+](=O)[O-])n[nH]1`, the melting point lay in the range of 120 to 123 °C. With `Nc1nc2cc(S(=O)(=O)c3ccccc3)ccc2s1` the figure was 278 to 280 °C. With `CC(Cn1cc(-c2ccccc2)c2ccccc2c1=O)NCc1ccccc1` (configuration not stated) the figure was 118 °C; with `COc1cccc2c1OC1C=CC=C3C(=O)N(CC4CC4)C(=O)CC321` (configuration not stated), 166 to 167 °C; with `Cc1cc(-c2cccc3c2C(=O)OC(C)(C)O3)on1`, 74 °C. With `CCOC(=O)c1cc(=O)c2[nH]ncc2[nH]1` the figure was 287 to 292 °C.

The molecule `COc1cc2c(cc1C(F)(F)F)N(C(=O)Nc1ccc(-c3ccccn3)s1)CC2` came in with a melting point of 205 to 215 °C.

Regarding `CCOC(=O)c1ncn(S(=O)(=O)N(C)C)n1`, the melting point was in the range of 78.5 to 81.5 °C. With `CC(=NOCCO)c1ccc(-c2ccc3c(c2)OCO3)cc1` the figure was 132 to 134 °C; with `CCc1c(C(=O)O)[nH]c2c1C(=O)CC(C)(C)C2`, above 198 °C.

`CCC(O)(CC)CCN1CCC(c2noc3cc(F)ccc23)CC1` yielded a melting point of 50 to 53 °C. With `CC(C)(C)c1cc(OCc2n[nH]c(=S)o2)cc(C(C)(C)C)c1O` the figure was 195 to 196 °C.

Molecule `COc1ccc(CN(CCN(C)CCCCCCNC(=O)NCCCOc2cccc(CN3CCCCC3)c2)c2ccccn2)cc1` yielded a melting point of 75 °C.

Consider `O=C(O)CCC(CS(=O)(=O)c1ccc2ccccc2c1)C(=O)N(CCC1CCCCC1)CCC1CCCCC1` (configuration not stated), for which the melting point lay within 138 to 140 °C. With `CCCCCOc1ccccc1C1=NNC(=O)CC1` the figure was 50 to 52 °C; with `CCOC(=O)C1=C(C)NC(=S)N(S(=O)(=O)c2ccccc2)C1c1cccc([N+](=O)[O-])c1` (configuration not stated), 162 to 164 °C.

Molecule `CC(=O)CCc1ccc2ccccc2c1` gave a melting point of 56 to 58 °C. With `OCc1cnc(Oc2ccccc2)s1` the figure was 50 °C; with `Cc1cc(-c2nc3c(s2)C(=O)c2ccccc2C3=O)oc1C`, 250 °C; with `O=C(NCCN1CCOCC1)N1CCN2C(=O)OC(c3ccccc3)(c3ccccc3)C2C1` (configuration not stated), 174 to 175 °C. With `O=C1CCC(NC(=O)C(Cl)(Cl)Cl)c2ccsc21` (configuration not stated) the figure was 167 to 171 °C. With `CC(O)c1nc(N)nc(N)c1-c1ccc(Cl)cc1` (configuration not stated) the figure was 159 °C; with `Cc1c(-c2ccc(F)cc2)n(Cc2ccc(OCCN3CCCCCC3)cc2)c2ccc(O)cc12`, 181 to 184 °C. Consider `CCCCCCCCCCCCCCCC(=O)Nc1cscc1NC(=O)CCCCCCCCCCCCCCC`, for which the melting point fell in the range of 107 to 109 °C. `Cc1cc(C)cc(C(=O)N2CCC(N3CCC(=C4c5ccccc5CCn5ccnc54)CC3)CC2Cc2ccccc2)c1` (configuration not stated) yielded a melting point of 139 °C. With `CSc1cc(C(F)(F)F)cc(Cl)c1-n1c(Br)nc(Cl)c1S(=O)(=O)C(F)F` the figure was 116 °C; with `COC12CC(C)(C)C(O1)C(=O)CC2C` (configuration not stated), 38 to 39 °C; with `COC(=O)C(Cl)=Cc1cc(N)ccc1Cl`, 104 to 105 °C. With `O=C(O)c1ccccc1Oc1cc(Cl)c(Cl)cc1NS(=O)(=O)c1cc(C(F)(F)F)cc(C(F)(F)F)c1` the figure was 139 to 140 °C; with `N#CC1CN1C(=O)NC(=O)CC1CCCCC1` (configuration not stated), 142 to 144 °C. `CCCCOC(=O)NC(=O)C(c1ccccc1)c1ccccc1` registered a melting point of 82 to 84 °C.

As for `CS(=O)c1ccc(C2=C(c3ccc(F)cc3)C(=O)C(C)(C)O2)cc1` (configuration not stated), the melting point lay in the range of 134 to 136 °C. `CC(C)(C)[Si](C)(C)OC(CCCO)COc1ccc2c(=O)cc(-c3ccccc3)oc2c1` (configuration not stated): the melting point fell in the range of 124 to 125 °C.

Take `COc1ccc(C=C2c3ccccc3CCc3ccccc32)cc1N`: the melting point came to 62.7 °C. For `O=S1(=O)NCN(C2CC2)c2c1ccc(Br)c2Cl`, the melting point lay in the range of 128 to 131 °C. `CC(C)NC(=O)C(O)C(Oc1ccccc1)c1ccccc1` (configuration not stated) gave a melting point of 166 to 168 °C. Molecule `Cc1oc(C)c2c(=O)c3c(=O)ccc(=O)c=3c(=O)c12` returned a melting point above 270 °C. As to `CCCCCCCCCCCCCCCCCC(=O)NC(C)Cc1cccc(C(F)(F)F)c1` (configuration not stated), the melting point fell in the range of 74 to 76 °C. With `COCCc1cc(O)ccc1N` the figure was 82 °C. In turn, `O=C(O)c1cc(-c2ccc(-c3ccc(C(F)(F)F)cc3)o2)ccc1O` had a melting point of 272 to 273 °C.

Molecule `COc1ccc(-c2nc(C(=O)c3ccc([N+](=O)[O-])c(OC)c3)n3ccccc23)cc1` displayed a melting point of 185 °C. With `COC(=O)c1ccc(C)c(-n2c(C)cc(OCc3ccccc3CNC(=O)Nc3cc(C(C)(C)C)nn3-c3ccc(Cl)c(O)c3)c(Cl)c2=O)c1` the figure was 193 to 195 °C; with `CC(CF)(CF)C(O)C(Oc1ccc(Cl)cc1)n1cncn1` (configuration not stated), 97 to 102 °C.

With `O=C1Nc2ccccc2Nc2ccsc21`, the melting point was determined as 226 °C. With `CCCCCN1CC[C@@H](c2ccc(Cl)cc2)[C@H](CO)C1` (racemic) the figure was 125 to 128 °C; with `CC(C)c1c(Br)ccc(N)c1C#N`, 82 to 85 °C; with `N#CCC(O)(c1ccc(Cl)cc1)c1ccc(-c2ccc(Br)cc2)cc1` (configuration not stated), 160 to 161 °C. Molecule `CCCCCCCOC(N)=O` gave a melting point of 84 °C. For the molecule `C[C@@H]1CN(C(=O)OC(C)(C)C)Cc2cc3cc(Br)c(F)cc3n21`, the melting point was in the range of 116 to 118 °C. With `CCCCCCCC(=O)NCCCCCOS(C)(=O)=O` the figure was 67 to 68 °C; with `O=C(CC(O)(c1cc(Cl)cc(Cl)c1)C(F)(F)F)c1ccc(-n2ccnc2)cc1` (configuration not stated), 161 to 162 °C. In turn, `CCC#CCCOc1ccc(C=O)cc1OC` yielded a melting point of 80 to 81 °C.

With `Nc1nc2ccccc2c2c1nc(CCCOc1ccccc1)n2CCCNC(=O)c1ccc(Br)cc1`, the melting point is 186 to 187 °C. With `CCCCc1ccc(-c2c(C)[nH]c(=O)n2C)cc1` the figure was 180 °C; with `CCOCc1nc(C(C)(C)O)c(C(=O)O)n1Cc1ccc(-c2ccccc2C(=O)O)cc1`, 166 to 169 °C. With `Cc1cc(C)nc(N(C(=O)Cl)c2cc(Cl)ccc2Cl)n1` the figure was 121 to 123 °C. On to `CCNC(=O)n1nc(Oc2c(Cl)cc(C(F)(F)F)cc2Cl)cc1C`, for which the melting point was 80 to 82 °C.

`Cc1cc(-c2cc(C(F)(F)F)n3ncc(-c4nc(-c5ccc(N)nc5)no4)c3n2)ccc1Cl`: the melting point amounted to 262 °C.

Consider `CCOC(=O)c1cnoc1-c1ccc(C)cc1`, for which the melting point was 42 to 44 °C. With `COc1cc(OC)nc(-n2c(S(C)(=O)=O)nc3ccccc32)n1` the figure was 114 to 117 °C; with `N#Cc1ccc(C(N)=O)s1`, 222 to 223 °C; with `Cn1c(C(F)(F)F)cc(=O)n(Cc2cc(I)cc(Cl)c2Cl)c1=O`, 142 to 144 °C. With `O=C(O)CN(CC(=O)O)CC(CO)C(=O)O` (configuration not stated) the figure was 195 °C. With `COC(=O)C(C)(C)OCC#Cc1cc(Cl)ccc1NS(=O)(=O)c1ccc(C(C)C)cc1` the figure was 65 to 67 °C; with `COCCNCc1cccc(OCCCNc2nc(N)nn2C)c1`, 61 to 62.5 °C; with `Oc1ccccc1-c1cccnc1`, 185 °C. In turn, `CCN(CC)c1cc(=O)c2c(o1)c(OC)cc1ccccc12` displayed a melting point of 150 to 151 °C. With `CCC(c1ccc(Br)cc1)N(O)C(=O)NC` (configuration not stated) the figure was 110 to 112 °C; with `CS(=O)(=O)c1ccc(C2=C(c3ccccc3)C(=O)OC2)cc1F`, 161 to 162 °C; with `CCCCC(=O)N(C(=O)NC(=O)c1ccccc1[N+](=O)[O-])c1ccc(Oc2ncc(Cl)cn2)c(C)c1`, 69 to 75 °C. With `NCC1CCN(C(c2ccccc2)c2ccccc2)CC1` the figure was 80 °C; with `Nc1nc(N)nc(C2CC3CC2CC3c2nc(N)nc(N)n2)n1` (configuration not stated), 317 to 324 °C; with `CC(=O)N1CCC(n2cc(C3=C(c4cn(C)c5ccccc45)C(=O)NC3=O)c3ccccc32)CC1`, above 293 °C. With `CCOCC1COc2ccc(N)cc2O1` (configuration not stated) the figure was 103 to 106 °C; with `Cc1ccccc1-c1cccc(Nc2ccccc2)c1C#N`, 125 to 126 °C; with `COc1ccc(-c2cccs2)cc1`, 111 °C. Molecule `COc1ccc(S(=O)(=O)Nc2ccccc2-c2ccc(F)cc2C(C)O)cc1` (configuration not stated) came in with a melting point of 137 to 138 °C. With `O=C(c1ccco1)c1cnn2c(-c3ccccc3)ccnc12` the figure was 185 to 187 °C; with `CCCN(c1ncncc1C#N)n1ccc2ccccc21`, 129 to 130 °C; with `O=C(O)C(Cc1occ2ccccc12)NC(=O)C(CS)C(F)(F)F` (configuration not stated), 143 to 145 °C. With `CCOC(=O)COc1cccc2c1CCCC2=O` the figure was 58 to 60 °C; with `O=C(O)CCN1CCN(C2=Nc3ccccc3Sc3ccc(Cl)cc32)CC1`, 120 to 121 °C; with `CN(C(=O)c1ccccc1N)c1ccccc1`, 127 °C. `CCC(C)n1ncn(-c2ccc(N3CCN(c4ccc(OCC(O)(Cn5cncn5)c5ccc(Cl)cc5Cl)cc4)CC3)cn2)c1=O` (configuration not stated) registered a melting point of 144 to 145 °C. With `O=C1NCc2ccccc2N1` the figure was 142 °C.
